We go through five compounds from patent US12508273B2, “Beta-1,3′-galactosyllactose for the treatment of gut barrier function diseases” (N.V. Nutricia, priority 2019, dated 2025).

What all share (format): cell-based, human
Data set [1] has as its system IL-8 (CXCL8) release by Caco-2 cells. The data set is described as follows: DON-induced IL-8 (CXCL8) release by Caco-2 cells, ELISA. The conditions noted are these: DON alone 4.2 M, 24 h. As for the experimental part: (§1) Caco-2 cell monolayers were thus grown in a transwell system, which is a model for intestinal barrier function. The monolayers were pretreated for 24 h with different GLs, including beta3′-GL, alpha3′-GL, beta4′-GL and beta6′-GL in a concentration of 0.75 wt % of the GL, before being exposed to the fungal toxin deoxynivalenol (DON), which is a trigger and model compound to impair intestinal barrier. DON was diluted to a final concentration of […] in complete cell medium and added to the apical side as well as to the basolateral side of the transwell inserts. […] Incubation with DON was 24 h.
(§2) Measurements of the transepithelial electrical resistance (TEER) and lucifer yellow (LY) permeability were conducted to investigate barrier integrity. […] Results are expressed as a percentage of the initial value. For paracellular tracer flux assay the membrane impermeable lucifer yellow (LY) (Sigma, St Luis, MO, USA) was added in a concentration of 16 μg/ml to the apical compartment in the transwell plate for 4 h, and the paracellular flux was determined by measuring the fluorescence intensity in the basolateral compartment with a spectrophotofluorimeter (FLUOstar Optima, BMG Labtech, Offenburg, Germany) set at excitation and emission wavelengths of 410 and 520 nm, respectively. […]

Data set [2] relates to Caco-2 cells. The data set is described as follows: Viability of Caco-2 cells exposed to DON. The conditions noted are these: DON 4.2 M in complete cell medium, apical and basolateral. As for the experimental part:
as §1

Data set [3] deals with Caco-2 cell monolayer. Description: Transepithelial electrical resistance (TEER) of Caco-2 monolayers after DON-induced impairment. As to the method:
(§3) Caco-2 cells were used according to established methods. In brief: cells were cultured in Dulbecco's modified Eagle medium (DMEM) and seeded at a density of 0.3×10^5 cells into 0.3 cm^2 high pore density (0.4 μm) inserts with a polyethylene terephthalate membrane (BD Biosciences, Franklin Lakes, NJ, USA) placed in a 24-well plate. The Caco-2 cells were maintained in a humidified atmosphere of 95 air and 5% CO2 at 37° C. After 17-19 days of culturing, a confluent monolayer was obtained with a mean Transepithelial electrical resistance (TEER) exceeding 400 Ωcm^2 measured by a Millicell-Electrical Resistance System voltohm-meter (Millipore, Temecula, CA, USA).
as §1
Measurements of the transepithelial electrical resistance (TEER) and lucifer yellow (LY) permeability were conducted to investigate barrier integrity. For TEER measurements a Millicel-ERS voltohmmeter connected to a pair of chopsticks electrodes was used to measure the TEER values. Results are expressed as a percentage of the initial value. For paracellular tracer flux assay the membrane impermeable lucifer yellow (LY) (Sigma, St Luis, MO, USA) was added in a concentration of 16 μg/ml to the apical compartment in the transwell plate for 4 h, and the paracellular flux was determined by measuring the fluorescence intensity in the basolateral compartment with a spectrophotofluorimeter (FLUOstar Optima, BMG Labtech, Offenburg, Germany) set at excitation and emission wavelengths of 410 and 520 nm, respectively. Release of interleukin-8 (IL-8 or CXCL8), which is a typical marker for inflammation, was quantified in the medium of the apical side and the basolateral side of the Caco-2 transwell inserts in response to the treatments. CXCL8 concentrations were measured by using the human IL-8 ELISA assay (BD Biosciences, Pharmingem, San Diego, CA, USA) according to manufacturer's instructions. For more details on materials and methods see Akbari et al, 2016, Eur J Nutr. 56(5):1919-1930.
Barrier function experiments were performed in a similar way as in example 2 using the following concentrations of Vivinal GOS (VGOS): 0 (Control), 0.25 wt % (VGOS 0.25), 0.5 wt % (VGOS 0.5), 0.75 wt % (VGOS 0.75), 1 wt % (VGOS 1), 1.5 wt % (VGOS 1.5) and 2 wt % (VGOS 2). For TOS concentrations of 0.25 wt % (TOS 0.25) and 0.5 wt % (TOS 0.5) were tested.

The subject of data set [4] is Caco-2 cell monolayer. Description: Lucifer yellow (LY) paracellular flux across Caco-2 monolayers after DON-induced impairment. As to conditions: GL 0.75 wt %, 24 h pretreatment, then DON 4.2 M 24 h; FIGS. 1C, 1D. As for the experimental part: as §3, with “USA). […]” for “USA).”
as §2

[5] abbreviates: GL 0.75 wt %, 24 h pretreatment, then DON 4.2 M 24 h.

Consider `CC1=C[C@H]2O[C@@H]3[C@H](O)C[C@](C)([C@@]2(CO)[C@H](O)C1=O)[C@]31CO1` [DON, deoxynivalenol], for which the “CXCL8 (IL-8) release” value in data set [1] is “increased CXCL8 (IL-8) release”. Moreover, the “viability of the Caco-2 cells” value in data set [2] is “did not affect the viability”.
With `OC[C@H]1O[C@H](O[C@H]2[C@@H](O)[C@@H](CO)O[C@@H](O[C@H]3[C@H](O)[C@@H](O)C(O)O[C@@H]3CO)[C@@H]2O)[C@H](O)[C@@H](O)[C@H]1O` (stereo partly drawn) [alpha3′-GL, Gal (alpha 1-3)-Gal (beta 1-4)-Glc], in data set [3] (setting [5]), the “effect on DON-induced loss of epithelial barrier integrity (TEER and LY flux)” value (“effect on DON-induced loss” for short) was “did not prevent the DON-induced disrupted intestinal barrier”.
For the compound `OC[C@H]1O[C@@H](O[C@@H]2[C@H](O)[C@@H](O)[C@H](O[C@H]3[C@H](O)[C@@H](O)C(O)O[C@@H]3CO)O[C@@H]2CO)[C@H](O)[C@@H](O)[C@H]1O` (stereo partly drawn) [beta4′-GL, Gal (beta 1-4)-Gal (beta 1-4)-Glc], the “effect on DON-induced loss” value in data set [3] (setting [5]) is recorded as “did not show a significant effect”.
As to `OC[C@H]1O[C@@H](OC[C@H]2O[C@@H](O[C@H]3[C@H](O)[C@@H](O)C(O)O[C@@H]3CO)[C@H](O)[C@@H](O)[C@H]2O)[C@H](O)[C@@H](O)[C@H]1O` (stereo partly drawn) [beta6′-GL, Gal (beta 1-6)-Gal (beta 1-4)-Glc], in data set [3] (setting [5]), the “effect on DON-induced loss” value was “did not show a significant effect”.
Consider “Gal (beta 1-3)-Gal (beta 1-4)-Glc [beta3′-GL]”, for which the “LY flux after DON challenge” value in data set [4] is recorded as “reduction in the DON-affected LY flux”. In addition, the “concentration of beta3′-GL in TOS at which the barrier effect is observed” value in data set [3] (Caco-2, DON challenge, beta3′-GL as part of TOS) was “lower than 0.17 wt %”. Further, the “effect on DON-induced loss” value in data set [3] (setting [5]) is reported as “prevented the DON-induced loss of epithelial barrier integrity”; in data set [3] (GL 0.75 wt %, 24 h pretreatment, then DON 4.2 M 24 h, listed as beta1,3′-galactosyllactose), “prevented loss of epithelial barrier integrity to a much higher extent than other galactosyl-lactoses”. In addition, the “TEER after DON challenge” value in data set [3] (GL 0.75 wt %, 24 h pretreatment, then DON 4.2 M 24 h, FIGS. 1A, 1B) is “increased TEER values”.
